Assay results published in US10034477B2, “Pyrido-1,3-oxazine-2,4-dione compounds with fungicidal activity” (Dow AgroSciences LLC, priority 2016, dated 2018).
Like-named read-outs stand apart in the source and are kept apart here.

Assays:
Puccinia triticina = assay: Fungicidal activity: wheat brown rust (PUCCRT), disease control on wheat seedlings; format: in vivo; conditions: LV activity at 121.5 g/H, wheat (variety Yuma)
Protocol: (§1) Technical grades of materials were dissolved in acetone, which were then mixed with nine volumes of water (H2O) containing 110 ppm Triton X-100. The fungicide solutions were applied onto wheat seedlings using an automated booth sprayer to run-off. All sprayed plants were allowed to air dry prior to further handling. All fungicides were evaluated using the aforementioned method for their activity vs. all target diseases, unless stated otherwise. Wheat leaf blotch and brown rust activity were also evaluated using track spray applications, in which case the fungicides were formulated as EC formulations, containing 0.1% Trycol 5941 in the spray solutions. Wheat plants (variety Yuma) were grown from seed in a greenhouse in 50% mineral soil/50% soil-less Metro mix until the first leaf was fully emerged, with 7-10 seedlings per pot. These plants were inoculated with an aqueous spore suspension of Zymoseptoria tritici either prior to or after fungicide treatments. After inoculation the plants were kept in 100% relative humidity (one day in a dark dew chamber followed by two to three days in a lighted dew chamber at 20° C.) to permit spores to germinate and infect the leaf. The plants were then transferred to a greenhouse set at 20° C. for disease to develop. When disease symptoms were fully expressed on the 1st leaves of untreated plants, infection levels were assessed on a scale of 0 to 100 percent disease severity. Percent disease control was calculated using the ratio of disease severity on treated plants relative to untreated plants. Wheat plants (variety Yuma) were grown from seed in a greenhouse in 50% mineral soil/50% soil-less Metro mix until the first leaf was fully emerged, with 7-10 seedlings per pot. These plants were inoculated with an aqueous spore suspension of Puccinia triticina either prior to or after fungicide treatments. After inoculation the plants were kept in a dark dew room at 22° C. with 100% relative humidity overnight to permit spores to germinate and infect the leaf. The plants were then transferred to a greenhouse set at 24° C. for disease to develop. Fungicide formulation, application and disease assessment followed the procedures as described in the Example A. Results of the evaluations are shown below in Table 4.

Zymoseptoria tritici = assay: Fungicidal activity: leaf blotch of wheat (SEPTTR), disease control on wheat seedlings; format: in vivo; conditions: LV activity at 121.5 g/H, wheat (variety Yuma)
Protocol: as §1, with “plants.” for “plants. Wheat plants (variety Yuma) were grown from seed in a greenhouse in 50% mineral soil/50% soil-less Metro mix until the first leaf was fully emerged, with 7-10 seedlings per pot. These plants were inoculated with an aqueous spore suspension of Puccinia triticina either prior to or after fungicide treatments. After inoculation the plants were kept in a dark dew room at 22° C. with 100% relative humidity overnight to permit spores to germinate and infect the leaf. The plants were then transferred to a greenhouse set at 24° C. for disease to develop. Fungicide formulation, application and disease assessment followed the procedures as described in the Example A. Results of the evaluations are shown below in Table 4.”

[1] = 24 h, 1 Day Protectant, read-out: PUCCRT 1DP disease control rating
[2] = 24 h, 1 Day Protectant, read-out: SEPTTR 1DP disease control rating
[3] = 72 h, 3 Day Curative, read-out: SEPTTR 3DC disease control rating
[4] = 72 h, 3 Day Curative, read-out: PUCCRT 3DC disease control rating

Row | Structure (SMILES) | pest or weed control at 121.5 g/ha (Puccinia triticina; [1]) [%] | pest or weed control at 121.5 g/ha (Zymoseptoria tritici; [2]) [%] | pest or weed control at 121.5 g/ha (Zymoseptoria tritici; [3]) [%] | pest or weed control at 121.5 g/ha (Puccinia triticina; [4]) [%]
1 | COc1ccnc2c(=O)n([C@@H](C)C(=O)O[C@@H](C)[C@H](c3ccccc3)c3ccc(C)cc3F)c(=O)oc12 [Compound 17] | > 80 | > 80 | > 80 | –
2 | CC[C@H](OC(=O)[C@H](C)n1c(=O)oc2c(OC)ccnc2c1=O)[C@@H](C)Oc1ccccc1 [Compound 6] | – | – | ≤ 80 | ≤ 80
3 | COc1ccnc2c(=O)n([C@@H](C)C(=O)O[C@@H](C)[C@H](Oc3ccccc3)c3ccc(F)cc3Cl)c(=O)oc12 [Compound 15] | > 80 | > 80 | > 80 | ≤ 80
4 | CCC(CC)[C@@H](Oc1cccc(Cl)c1)[C@H](C)OC(=O)[C@H](C)n1c(=O)oc2c(OC)ccnc2c1=O [Compound 9] | > 80 | ≤ 80 | ≤ 80 | ≤ 80
5 | COc1ccnc2c(=O)n([C@@H](C)C(=O)O[C@@H](C)C(c3ccc(F)cc3F)c3ccc(F)cc3F)c(=O)oc12 [Compound 2] | > 80 | > 80 | > 80 | ≤ 80
6 | COc1ccnc2c(=O)n([C@@H](C)C(=O)O[C@@H](C)C(c3cccc(F)c3)c3cccc(F)c3)c(=O)oc12 [Compound 14] | ≤ 80 | > 80 | > 80 | ≤ 80
7 | COc1cc(F)ccc1[C@@H](c1ccc(F)cc1)[C@H](C)OC(=O)[C@H](C)n1c(=O)oc2c(OC)ccnc2c1=O [Compound 20] | > 80 | > 80 | > 80 | ≤ 80
8 | COc1ccnc2c(=O)n([C@@H](C)C(=O)O[C@@H](C)[C@H](Oc3ccccc3)C(C)(C)C)c(=O)oc12 [Compound 4] | > 80 | – | ≤ 80 | > 80
9 | COc1cc(F)ccc1[C@@H](c1ccc(F)c(C)c1)[C@H](C)OC(=O)[C@H](C)n1c(=O)oc2c(OC)ccnc2c1=O [Compound 7] | > 80 | > 80 | > 80 | –
10 | CCC(CC)[C@@H](Oc1ccccc1Cl)[C@H](C)OC(=O)[C@H](C)n1c(=O)oc2c(OC)ccnc2c1=O [Compound 16] | > 80 | ≤ 80 | > 80 | ≤ 80
11 | COc1ccnc2c(=O)n([C@@H](C)C(=O)O[C@@H](C)[C@H](c3ccc(F)cc3)c3ccc(F)cc3C)c(=O)oc12 [Compound 11] | ≤ 80 | > 80 | > 80 | –
12 | CCC[C@@H](Oc1cccc(OC)c1)[C@H](C)OC(=O)[C@H](C)n1c(=O)oc2c(OC)ccnc2c1=O [Compound 10] | > 80 | – | > 80 | > 80
13 | COc1ccc(C(c2ccc(OC)cc2OC)[C@H](C)OC(=O)[C@H](C)n2c(=O)oc3c(OC)ccnc3c2=O)c(OC)c1 [Compound 8] | ≤ 80 | > 80 | > 80 | ≤ 80
14 | CCC(CC)[C@@H](Oc1ccc(Cl)cc1)[C@H](C)OC(=O)[C@H](C)n1c(=O)oc2c(OC)ccnc2c1=O [Compound 5] | > 80 | > 80 | ≤ 80 | ≤ 80
